{"source": "patent US9249115B2", "about": "“N,N1 substituted piperazines having combined antiaggregant, anticoagulant and vasodilatory activity, and method for producing same” (Vertex Closed Joint Stock Company, priority 2011, dated 2016)", "key": {"[1]": {"tested_on": "ADP-induced thrombocyte aggregation", "assay": "ADP-induced thrombocyte aggregation, donor human thrombocyte enriched plasm", "format": "cell-based", "details": "ADP inductor; for MA, %: human thrombocyte plasm", "in_short": "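Citrated donor human platelet-rich plasma, normalized to 200-250×10^9/L platelets, was preincubated with compound in Tris-HCl pH 7.4 for 5 min at 37 °C. Aggregation induced by ADP was followed for 3 min by light transmission with stirring at 1200 rpm. Maximum amplitude was taken as % transmittance relative to platelet-free plasma.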"}, "[2]": {"tested_on": "experimental photothrombosis", "assay": "Experimental photothrombosis model, arterial blood velocity", "format": "in vivo, Wistar male rats", "method": "The studies were done on Wistar male rats with mass of 230±30 g (laboratory animals nursery “Rappolovo”, RAMS). The animals were kept with unlimited food (standard ration for laboratory rats K-120 by <<Inform-korm>>, Russia) and water allowance. […]\nThrombosis modeling: the drugs were introduced into left femoral vein, in 50 min afterwards 1 ml of Bengal rose A photosensitizer (Acros Organics, USA) solution was introduced with dose of 17 mg/kg [Boselli 2007, Petrischev 2009]. Then the incision of internal surface of animal right thigh about 2 cm in length was made. The section of the femoral vein about 5 mm in length was released from surrounding tissues and separated from neurovascular bundle. Beneath this section of the vein the black non-transparent plastic strip 3 mm in width was laid to screen off the vein and surrounding tissues from radiation. The irradiation was done using diode laser <<DPSS-laser>> (Diode Pumped Solid State Laser, South Korea) with 532 nm wavelength and 60 mW power. The area of irradiation was 1 mm^2, exposing time was 40 min. The blood flow in femoral artery was measured by high frequency Doppler ultrasonography method (<<Minimax-Doppler-K>> apparatus, frequency of sensor was 20 MHz). The blood velocity alteration due to irradiation was measured (Table 9)."}, "[3]": {"tested_on": "mesentery arterioles", "assay": "Vasodilator properties, microcirculatory vessel responsiveness to noradrenalin, arterioles", "format": "in vivo, Wistar male rats", "method": "Vasodilator properties of N,N′-substituted piperazines were evaluated according to their influence on microcirculatory vessel responsiveness.\nThe studies were done on Wistar male rats with mass of 300±30 g (laboratory animals nursery “Rappolovo”, RAMS). The animals were kept with unlimited food (standard ration for laboratory rats K-120 by <<Inform-korm>>, Russia) and water allowance.\nThe solutions of N,N′-substituted piperazines and physiological (control) solution were introduced via bolus injection within 1 min into caudal vein of non-anaesthetized animals according to the dosage of 5.0 ml per 1 kg. Immediately after the introduction the animals were put in separate standard cages for observation.\nIn 30 min after the injection the animals were anaesthetized (thiopental sodium, 60 mg/kg intraperitoneally). The loop of small intestine adjoined to mesoappendix was retrieved through inferomedian incision. To study microcirculation in mesentery venules and arterioles in transmitted light the rat was placed on thermostated microscope objective table. The application of noradrenalin solution (Aguettant, 2 mg/ml, Laboratoire AGUETTANT, France) was done directly on the mesentery (Furness J. B., Marshall J. M., 1974; Yantareva L. I., 2004).\nThe study of microcirculatory vessels was done with LUMAM I1 microscope (LOMO, Russia). The recording of video data was done with the camera (Optics and Electronics ISTA Ltd) attached to a personal computer. The processing of data was done with Video-Test 4.0 software (ISTA Ltd., Russia). The diameter of the vessel wall (D, m) before and after the application of noradrenalin and the starting time of blood flow slowdown induced by noradrenalin were measured (the measurements were done for 1 min after the application)."}, "[4]": {"tested_on": "Ristocetin-induced thrombocyte aggregation", "assay": "Ristocetin-induced thrombocyte aggregation, donor human thrombocyte enriched plasm", "format": "cell-based", "details": "ristocetin inductor; for MA (60 c), %: amplitude at 60 s", "in_short": "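Citrated donor human platelet-rich plasma, normalized to 200-250×10^9/L platelets, preincubated with compound in Tris-HCl pH 7.4 for 5 min at 37 °C. Aggregation induced by ristocetin (reagent diluted to 12 mg/ml) and followed turbidimetrically with stirring at 37 °C. Maximum amplitude, as % transmittance versus platelet-poor plasma, read at 60 s.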"}, "[5]": {"details": "0.01 mmol/kg, noradrenalin 10^−6 g/ml"}, "[6]": {"details": "0.025 mmol/kg, noradrenalin 10^−7 g/ml"}}, "data": [{"smiles": "O=C(O)/C=C/c1ccc(Cn2ccnc2)cc1", "note": "[Ozagrel, reference compound]", "values": [{"measurement": "MA, %", "setting": "[1]; 1.25 mmol/L", "result": "12.9 ± 2.1", "unit": "%"}, {"measurement": "MA, %", "setting": "[1]; 2.50 mmol/L", "result": "10.6 ± 2.5", "unit": "%"}, {"measurement": "MA, %", "setting": "[1]; 5.0 mmol/L", "result": "9.6 ± 2.5", "unit": "%"}, {"measurement": "MA, %", "setting": "[1]; 7.5 mmol/L", "result": "4.2 ± 1.2", "unit": "%"}, {"measurement": "inhibition at 1250 µM", "setting": "[1]; Homo sapiens, 1.25 mmol/L, read-out: (MA0-MAx): MA0 * 100%", "result": 2.3, "unit": "%"}, {"measurement": "inhibition at 2500 µM", "setting": "[1]; Homo sapiens, 2.50 mmol/L, read-out: (MA0-MAx): MA0 * 100%", "result": 19.7, "unit": "%"}, {"measurement": "inhibition at 5000 µM", "setting": "[1]; Homo sapiens, 5.0 mmol/L, read-out: (MA0-MAx): MA0 * 100%", "result": 63.6, "unit": "%"}, {"measurement": "inhibition at 7500 µM", "setting": "[1]; Homo sapiens, 7.5 mmol/L, read-out: (MA0-MAx): MA0 * 100%", "result": 68.2, "unit": "%"}, {"measurement": "V, cm/s (arterial blood velocity)", "setting": "[2]; 0.01 mmol/kg, 0 min of irradiation", "result": "10.9 ± 2.9", "unit": "cm/s"}, {"measurement": "V, cm/s (arterial blood velocity)", "setting": "[2]; 0.01 mmol/kg, 10 min of irradiation", "result": "5.7 ± 1.8", "unit": "cm/s"}, {"measurement": "V, cm/s (arterial blood velocity)", "setting": "[2]; 0.01 mmol/kg, 20 min of irradiation", "result": "Absence of blood flow"}, {"measurement": "V, cm/s (arterial blood velocity)", "setting": "[2]; 0.01 mmol/kg, 30 min of irradiation", "result": "Absence of blood flow"}, {"measurement": "V, cm/s (arterial blood velocity)", "setting": "[2]; 0.01 mmol/kg, 40 min of irradiation", "result": "Absence of blood flow"}, {"measurement": "V, cm/s (arterial blood velocity)", "setting": "[2]; 0.025 mmol/kg, 0 min of irradiation", "result": "9.0 ± 2.7", "unit": "cm/s"}, {"measurement": "V, cm/s (arterial blood velocity)", "setting": "[2]; 0.025 mmol/kg, 10 min of irradiation", "result": "5.1 ± 1.7", "unit": "cm/s"}, {"measurement": "V, cm/s (arterial blood velocity)", "setting": "[2]; 0.025 mmol/kg, 20 min of irradiation", "result": "3.8 ± 1.0", "unit": "cm/s"}, {"measurement": "V, cm/s (arterial blood velocity)", "setting": "[2]; 0.025 mmol/kg, 30 min of irradiation", "result": "5.5 ± 1.4", "unit": "cm/s"}, {"measurement": "V, cm/s (arterial blood velocity)", "setting": "[2]; 0.025 mmol/kg, 40 min of irradiation", "result": "5.8 ± 1.7", "unit": "cm/s"}, {"measurement": "% of vessel constriction", "setting": "[3]; [5]", "result": 80, "unit": "%"}, {"measurement": "Blood flow slowdown, Latent period of slowdown", "setting": "[3]; [5]", "result": "27 ± 6", "unit": "s"}, {"measurement": "% of vessel constriction", "setting": "[3]; [6]", "result": 27, "unit": "%"}, {"measurement": "Blood flow slowdown, Latent period of slowdown, s", "setting": "[3]; [6]", "result": "No slowdown"}, {"measurement": "(MAx-MA0): MA0 * 100% (Ozagrel: (MA0-MAx): MA0 * 100%)", "setting": "[4]; 1.25 mmol/L", "result": 8.0, "unit": "%"}, {"measurement": "MA (60 c), %", "setting": "[4]; 1.25 mmol/L", "result": "58.6 ± 9.1", "unit": "%"}, {"measurement": "(MAx-MA0): MA0 * 100% (Ozagrel: (MA0-MAx): MA0 * 100%)", "setting": "[4]; 2.5 mmol/L", "result": 28.4, "unit": "%"}, {"measurement": "MA (60 c), %", "setting": "[4]; 2.5 mmol/L", "result": "45.6 ± 9.5", "unit": "%"}, {"measurement": "(MAx-MA0): MA0 * 100% (Ozagrel: (MA0-MAx): MA0 * 100%)", "setting": "[4]; 5.0 mmol/L", "result": 44.1, "unit": "%"}, {"measurement": "MA (60 c), %", "setting": "[4]; 5.0 mmol/L", "result": "35.6 ± 8.5", "unit": "%"}]}]}
